Data on six molecules can be found in the supplement of paper PMC12076712.

Experiment in all cases: pIC50, kinobeads binding competition
One assay deals with UniProt O96017. In a few lines: (§1)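 pIC50 was obtained by fitting fold changes against vehicle to logistic dose-response curves with the R drc package, using biological duplicates. Kinobeads-bound proteins were digested and measured by TMT10 LC-MS/MS. Before this, either living Jurkat cells received nine compound concentrations (top 30 μM, 1:4 steps) for 60 min at 37 °C prior to lysis, or Jurkat lysate or a 1:1:1:1 HEK293/K-562/HepG2/placenta lysate mix received nine concentrations (top 30 μM, 1:5 steps) for 60 min at 4 °C.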
UniProt O96017, sequence (O96017 whole entry): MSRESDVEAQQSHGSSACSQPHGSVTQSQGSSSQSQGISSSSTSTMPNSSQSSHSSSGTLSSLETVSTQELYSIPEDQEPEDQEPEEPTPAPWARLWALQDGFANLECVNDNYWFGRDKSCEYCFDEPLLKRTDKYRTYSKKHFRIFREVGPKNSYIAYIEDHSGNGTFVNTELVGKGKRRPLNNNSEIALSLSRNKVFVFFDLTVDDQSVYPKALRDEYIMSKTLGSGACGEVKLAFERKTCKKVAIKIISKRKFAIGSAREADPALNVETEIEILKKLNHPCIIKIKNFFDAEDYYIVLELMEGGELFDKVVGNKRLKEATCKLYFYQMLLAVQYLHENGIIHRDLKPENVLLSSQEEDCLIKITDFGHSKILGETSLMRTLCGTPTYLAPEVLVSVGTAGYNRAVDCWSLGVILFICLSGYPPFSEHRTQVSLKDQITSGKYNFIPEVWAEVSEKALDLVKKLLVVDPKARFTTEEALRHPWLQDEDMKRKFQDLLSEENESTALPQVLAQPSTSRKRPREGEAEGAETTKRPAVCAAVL

The target of another assay is UniProt Q9BQI3. The method, boiled down:
as §1

For another assay, the target named is UniProt P17252. The method, boiled down:
as §1

In the next assay the target is T1, UniProt Q15139.
T1 sequence (whole entry): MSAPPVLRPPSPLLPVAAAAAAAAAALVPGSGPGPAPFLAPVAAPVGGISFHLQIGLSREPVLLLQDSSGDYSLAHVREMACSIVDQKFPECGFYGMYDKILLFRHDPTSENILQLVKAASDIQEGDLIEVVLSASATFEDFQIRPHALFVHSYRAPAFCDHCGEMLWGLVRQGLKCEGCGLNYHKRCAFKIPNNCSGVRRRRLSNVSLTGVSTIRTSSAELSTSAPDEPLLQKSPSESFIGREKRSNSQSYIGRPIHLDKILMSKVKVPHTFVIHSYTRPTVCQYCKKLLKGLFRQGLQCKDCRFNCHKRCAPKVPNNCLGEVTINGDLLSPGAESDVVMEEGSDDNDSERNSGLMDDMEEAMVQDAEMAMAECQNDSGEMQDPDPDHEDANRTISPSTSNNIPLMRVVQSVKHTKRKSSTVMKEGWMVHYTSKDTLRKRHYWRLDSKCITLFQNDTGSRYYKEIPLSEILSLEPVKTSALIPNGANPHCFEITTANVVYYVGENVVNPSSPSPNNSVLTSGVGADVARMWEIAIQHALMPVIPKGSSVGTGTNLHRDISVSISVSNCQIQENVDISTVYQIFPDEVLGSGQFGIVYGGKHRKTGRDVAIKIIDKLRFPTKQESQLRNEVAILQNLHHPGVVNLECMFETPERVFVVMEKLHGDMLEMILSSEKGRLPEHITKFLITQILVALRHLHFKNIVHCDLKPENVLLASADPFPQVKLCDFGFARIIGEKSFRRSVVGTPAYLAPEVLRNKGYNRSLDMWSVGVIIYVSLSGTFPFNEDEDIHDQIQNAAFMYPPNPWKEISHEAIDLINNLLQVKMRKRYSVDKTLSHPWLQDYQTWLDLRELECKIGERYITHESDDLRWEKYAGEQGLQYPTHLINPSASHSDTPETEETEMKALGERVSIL
The settings on record: cell material: Lysate mix. In a few lines:
as §1

Another assay concerns the target FGFR1 (UniProt P11362). The method, boiled down: as §1
A further assay has as its target T2, TAOK1 (UniProt Q7L7X3).
T2 sequence (whole entry): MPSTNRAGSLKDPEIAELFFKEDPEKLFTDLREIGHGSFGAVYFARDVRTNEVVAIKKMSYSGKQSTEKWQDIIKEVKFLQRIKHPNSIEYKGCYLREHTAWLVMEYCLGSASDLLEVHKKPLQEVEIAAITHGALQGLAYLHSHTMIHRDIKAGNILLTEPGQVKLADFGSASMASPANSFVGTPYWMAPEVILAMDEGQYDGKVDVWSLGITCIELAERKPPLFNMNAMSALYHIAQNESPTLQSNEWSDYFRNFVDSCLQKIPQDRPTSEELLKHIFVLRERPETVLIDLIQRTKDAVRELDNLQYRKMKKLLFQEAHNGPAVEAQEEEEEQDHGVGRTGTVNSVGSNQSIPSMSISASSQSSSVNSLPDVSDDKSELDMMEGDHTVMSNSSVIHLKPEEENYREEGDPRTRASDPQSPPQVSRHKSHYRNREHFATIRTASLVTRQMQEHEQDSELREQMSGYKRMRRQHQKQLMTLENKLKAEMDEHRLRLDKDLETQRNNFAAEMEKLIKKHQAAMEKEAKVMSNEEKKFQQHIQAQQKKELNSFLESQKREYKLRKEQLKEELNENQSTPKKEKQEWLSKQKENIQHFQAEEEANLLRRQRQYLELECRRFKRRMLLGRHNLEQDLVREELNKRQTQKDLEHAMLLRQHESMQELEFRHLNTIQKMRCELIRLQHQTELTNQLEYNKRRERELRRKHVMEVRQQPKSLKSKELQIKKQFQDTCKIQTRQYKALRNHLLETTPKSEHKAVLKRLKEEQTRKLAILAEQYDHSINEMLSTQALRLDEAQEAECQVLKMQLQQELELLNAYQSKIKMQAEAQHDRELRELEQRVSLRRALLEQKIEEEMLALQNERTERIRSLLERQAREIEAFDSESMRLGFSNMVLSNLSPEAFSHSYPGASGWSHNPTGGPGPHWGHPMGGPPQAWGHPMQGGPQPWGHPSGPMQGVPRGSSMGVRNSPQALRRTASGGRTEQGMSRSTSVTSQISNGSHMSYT
The method, boiled down:
as §1

The next assay deals with DYRK1B (UniProt Q9Y463). The method, boiled down: as §1
DYRK1B, sequence (Q9Y463 whole entry, looked up): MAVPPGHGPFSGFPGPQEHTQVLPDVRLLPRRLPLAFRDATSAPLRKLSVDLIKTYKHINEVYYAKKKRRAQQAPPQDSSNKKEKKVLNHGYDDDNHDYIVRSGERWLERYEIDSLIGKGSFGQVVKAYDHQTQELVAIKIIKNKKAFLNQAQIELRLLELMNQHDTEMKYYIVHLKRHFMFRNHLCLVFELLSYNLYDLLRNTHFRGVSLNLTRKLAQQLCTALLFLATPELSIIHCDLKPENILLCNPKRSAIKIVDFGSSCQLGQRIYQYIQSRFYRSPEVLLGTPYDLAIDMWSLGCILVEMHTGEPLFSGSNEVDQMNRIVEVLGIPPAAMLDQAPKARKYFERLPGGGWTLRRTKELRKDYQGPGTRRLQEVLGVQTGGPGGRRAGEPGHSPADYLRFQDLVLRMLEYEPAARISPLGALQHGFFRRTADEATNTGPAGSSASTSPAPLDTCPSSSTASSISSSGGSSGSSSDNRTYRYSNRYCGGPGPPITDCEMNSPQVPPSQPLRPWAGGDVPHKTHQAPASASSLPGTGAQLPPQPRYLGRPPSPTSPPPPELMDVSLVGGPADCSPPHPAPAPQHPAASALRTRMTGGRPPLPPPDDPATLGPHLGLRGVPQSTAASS
For the next assay, the target named is UniProt P21127. In a few lines:
as §1

UniProt Q9BQI3, sequence (Q9BQI3 whole entry): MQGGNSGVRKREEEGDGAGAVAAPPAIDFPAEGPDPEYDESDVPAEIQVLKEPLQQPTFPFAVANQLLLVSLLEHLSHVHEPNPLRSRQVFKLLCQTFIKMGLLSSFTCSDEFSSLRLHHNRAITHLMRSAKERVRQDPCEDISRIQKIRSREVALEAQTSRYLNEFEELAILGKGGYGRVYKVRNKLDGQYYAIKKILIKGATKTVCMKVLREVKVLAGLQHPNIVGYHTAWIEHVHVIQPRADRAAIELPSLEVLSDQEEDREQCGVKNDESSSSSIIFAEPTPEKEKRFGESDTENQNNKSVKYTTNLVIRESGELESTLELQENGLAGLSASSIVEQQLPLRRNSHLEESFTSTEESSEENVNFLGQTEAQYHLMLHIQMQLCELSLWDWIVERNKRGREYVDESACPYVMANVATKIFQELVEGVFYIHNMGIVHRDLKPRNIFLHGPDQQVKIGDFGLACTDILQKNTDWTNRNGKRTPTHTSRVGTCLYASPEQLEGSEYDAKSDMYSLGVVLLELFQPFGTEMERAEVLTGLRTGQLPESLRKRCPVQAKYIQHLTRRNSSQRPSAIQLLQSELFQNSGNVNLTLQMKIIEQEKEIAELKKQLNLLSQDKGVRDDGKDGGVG
UniProt P21127, sequence (P21127 whole entry): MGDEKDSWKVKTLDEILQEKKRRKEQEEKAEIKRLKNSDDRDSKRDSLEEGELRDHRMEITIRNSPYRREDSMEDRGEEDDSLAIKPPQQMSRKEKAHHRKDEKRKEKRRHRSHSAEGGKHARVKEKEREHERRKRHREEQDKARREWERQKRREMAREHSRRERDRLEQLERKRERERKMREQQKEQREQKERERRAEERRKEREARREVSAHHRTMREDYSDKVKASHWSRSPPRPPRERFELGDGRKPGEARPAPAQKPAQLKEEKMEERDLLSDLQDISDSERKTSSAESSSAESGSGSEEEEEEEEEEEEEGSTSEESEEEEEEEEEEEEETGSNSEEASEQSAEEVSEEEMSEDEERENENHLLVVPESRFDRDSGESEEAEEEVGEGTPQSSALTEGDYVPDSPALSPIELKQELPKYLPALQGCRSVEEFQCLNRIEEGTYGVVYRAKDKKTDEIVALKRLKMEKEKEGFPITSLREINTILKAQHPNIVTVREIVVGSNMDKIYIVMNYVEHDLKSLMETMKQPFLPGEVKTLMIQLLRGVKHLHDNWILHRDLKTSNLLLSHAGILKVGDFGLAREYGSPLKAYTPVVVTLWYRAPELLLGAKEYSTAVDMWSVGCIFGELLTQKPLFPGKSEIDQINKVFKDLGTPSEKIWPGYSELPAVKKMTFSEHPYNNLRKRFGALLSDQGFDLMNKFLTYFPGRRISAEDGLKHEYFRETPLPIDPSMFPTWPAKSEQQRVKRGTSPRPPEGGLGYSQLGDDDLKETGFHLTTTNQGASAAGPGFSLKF
FGFR1, sequence (P11362 whole entry, looked up): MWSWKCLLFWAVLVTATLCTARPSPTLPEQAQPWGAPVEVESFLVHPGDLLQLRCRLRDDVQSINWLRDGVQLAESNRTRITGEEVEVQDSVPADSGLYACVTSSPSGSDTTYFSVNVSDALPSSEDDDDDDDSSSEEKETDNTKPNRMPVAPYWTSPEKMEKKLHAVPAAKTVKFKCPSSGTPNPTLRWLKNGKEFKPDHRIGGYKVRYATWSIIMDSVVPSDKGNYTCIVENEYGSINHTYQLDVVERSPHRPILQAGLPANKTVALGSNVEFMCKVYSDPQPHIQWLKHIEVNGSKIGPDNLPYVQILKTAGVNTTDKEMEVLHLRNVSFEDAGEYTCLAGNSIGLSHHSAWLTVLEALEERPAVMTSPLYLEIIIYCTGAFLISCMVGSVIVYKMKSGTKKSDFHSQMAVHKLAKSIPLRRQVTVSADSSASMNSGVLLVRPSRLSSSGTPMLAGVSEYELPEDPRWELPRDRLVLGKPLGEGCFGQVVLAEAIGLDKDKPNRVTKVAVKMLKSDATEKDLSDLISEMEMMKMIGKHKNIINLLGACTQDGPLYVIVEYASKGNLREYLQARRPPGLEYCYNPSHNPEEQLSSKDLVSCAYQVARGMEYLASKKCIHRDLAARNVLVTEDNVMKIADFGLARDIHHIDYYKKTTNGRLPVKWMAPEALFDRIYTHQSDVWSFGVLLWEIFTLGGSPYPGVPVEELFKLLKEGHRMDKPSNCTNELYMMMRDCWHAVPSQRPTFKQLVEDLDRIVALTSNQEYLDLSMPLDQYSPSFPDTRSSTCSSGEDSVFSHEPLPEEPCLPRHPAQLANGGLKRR

The term pIC50 denotes the IC50 on a negative log10 scale, so that one unit is a factor of ten. Consider `Cc1cc(Nc2cc(C(=O)NCCNC(=O)OC3CC/C=C/CCC3)nc(N3CCN(Cc4ccc(S(=O)(=O)F)cc4)CC3)n2)n[nH]1` (stereo not drawn), for which the pIC50 on UniProt O96017 (cell material: Lysate mix) was 5.23; at UniProt Q9BQI3 (cell material: Lysate mix) it was less than 4.52; on UniProt P17252 (cell material: Lysate mix), less than 4.52; on UniProt Q15139, less than 4.52; on FGFR1 (cell material: Lysate mix) it was less than 4.52; on TAOK1 (cell material: Lysate mix) it was 5.87. Besides, the pIC50 on DYRK1B (cell material: Lysate mix) and at UniProt P21127 (cell material: Lysate mix) was less than 4.52 throughout.

As for `C#CCNC(=O)c1cc(Nc2cc(C3CC3)[nH]n2)nc(N2CCN(Cc3ccc(S(=O)(=O)F)cc3)CC2)n1`, the pIC50 is 5.76 on UniProt O96017 (cell material: Jurkat cells); 4.88 at UniProt O96017 (cell material: Jurkat lysate); 4.92 on UniProt O96017 (cell material: Lysate mix); 5.34 on UniProt Q9BQI3 (cell material: Jurkat cells); less than 4.52 at UniProt Q9BQI3 (cell material: Jurkat lysate); 5.48 at UniProt P17252 (cell material: Jurkat cells). The pIC50 is less than 4.52 on UniProt P17252 (cell material: Jurkat lysate); less than 4.52 on UniProt P17252 (cell material: Lysate mix); less than 4.52 at UniProt Q15139; 5.72 at FGFR1 (cell material: Jurkat cells); less than 4.52 on FGFR1 (cell material: Jurkat lysate); 4.81 at FGFR1 (cell material: Lysate mix). Also, the pIC50 at TAOK1 (cell material: Jurkat cells) is 5.6; on TAOK1 (cell material: Jurkat lysate), less than 4.52; at TAOK1 (cell material: Lysate mix), less than 4.52; at DYRK1B (cell material: Jurkat cells), 5.47; on DYRK1B (cell material: Jurkat lysate), less than 4.52; at DYRK1B (cell material: Lysate mix), less than 4.52. Besides, the pIC50 on UniProt P21127 (cell material: Jurkat cells), on UniProt P21127 (cell material: Jurkat lysate) and at UniProt P21127 (cell material: Lysate mix) was less than 4.52 each time.

Turning to `CCNC(=O)c1cc(Nc2cc(C3CC3)[nH]n2)nc(N2CCN(Cc3ccc(S(=O)(=O)F)cc3)CC2)n1`, the pIC50 at UniProt O96017 (cell material: Lysate mix) is 4.75; at UniProt Q9BQI3 (cell material: Lysate mix), 5.06; on UniProt P17252 (cell material: Lysate mix), 5.11; at UniProt Q15139, less than 4.52; at FGFR1 (cell material: Lysate mix), 5.24; on TAOK1 (cell material: Lysate mix), less than 4.52. Besides, the pIC50 on DYRK1B (cell material: Lysate mix) was 5.08; at UniProt P21127 (cell material: Lysate mix), less than 4.52.

Take `C#CCNC(=O)c1cc(Nc2cc(C)[nH]n2)nc(N2CCN(Cc3ccc(S(=O)(=O)F)cc3)CC2)n1`: the pIC50 at UniProt O96017 (cell material: Lysate mix) was 4.98; at UniProt Q9BQI3 (cell material: Lysate mix), less than 4.52; on UniProt P17252 (cell material: Lysate mix), less than 4.52; at UniProt Q15139, less than 4.52; at FGFR1 (cell material: Lysate mix), less than 4.52; on TAOK1 (cell material: Lysate mix), less than 4.52. For the same molecule, the negative-log IC50 (pIC50) on DYRK1B (cell material: Lysate mix) and at UniProt P21127 (cell material: Lysate mix) was less than 4.52 each time.

In the case of `O=C(NCCNC(=O)c1cc(Nc2cc(C3CC3)[nH]n2)nc(N2CCN(Cc3ccc(S(=O)(=O)F)cc3)CC2)n1)OC1CC/C=C/CCC1` (stereo not drawn), the negative logarithm of the IC50 (pIC50) on UniProt O96017 (cell material: Jurkat cells) is 5.78; on UniProt O96017 (cell material: Jurkat lysate), 4.92; at UniProt O96017 (cell material: Lysate mix) it was 4.71; on UniProt Q9BQI3 (cell material: Jurkat cells), less than 4.52; at UniProt Q9BQI3 (cell material: Jurkat lysate) it was less than 4.52; on UniProt Q9BQI3 (cell material: Lysate mix) it was less than 4.52. Further, the pIC50 was less than 4.52 at UniProt P17252 (cell material: Jurkat lysate); less than 4.52 on UniProt P17252 (cell material: Lysate mix); less than 4.52 at UniProt Q15139; less than 4.52 on FGFR1 (cell material: Jurkat lysate); less than 4.52 on FGFR1 (cell material: Lysate mix); 5.96 at TAOK1 (cell material: Jurkat cells). For the same molecule, the pIC50 on TAOK1 (cell material: Jurkat lysate) is 5.65; on TAOK1 (cell material: Lysate mix), 6.1; at DYRK1B (cell material: Jurkat cells), 4.8; at DYRK1B (cell material: Jurkat lysate), less than 4.52; at DYRK1B (cell material: Lysate mix) it was less than 4.52; on UniProt P21127 (cell material: Jurkat cells) it was less than 4.52. Further, the negative logarithm of the IC50 (pIC50) on UniProt P21127 (cell material: Jurkat lysate) and at UniProt P21127 (cell material: Lysate mix) was less than 4.52 throughout.

Consider `CCNC(=O)c1cc(Nc2cc(C)[nH]n2)nc(N2CCN(Cc3ccc(S(=O)(=O)F)cc3)CC2)n1`, for which the pIC50 is 4.92 on UniProt O96017 (cell material: Lysate mix); less than 4.52 at UniProt Q9BQI3 (cell material: Lysate mix); less than 4.52 on UniProt P17252 (cell material: Lysate mix); less than 4.52 on UniProt Q15139; less than 4.52 on FGFR1 (cell material: Lysate mix); less than 4.52 at TAOK1 (cell material: Lysate mix). Moreover, the pIC50 at DYRK1B (cell material: Lysate mix) and on UniProt P21127 (cell material: Lysate mix) was less than 4.52 throughout.
